Data: paper PMC7385619, “A triple action CDK4/6-PI3K-BET inhibitor with augmented cancer cell cytotoxicity” (Cell Discovery, 2020)

Tests used:
Assay in all cases: KINOMEscan assay (Eurofins DiscoverX)
Type in all cases: binding
[1] = biological target: T1, kinome (kinase panel) (Homo sapiens, UniProt O14936); conditions: CASK; 1000 nM; read-out: Percent Control
T1 construct: purchased Eurofins DiscoverX

[2] = biological target: T2, kinome (kinase panel) (Homo sapiens, UniProt P08922); conditions: ROS1; 1000 nM; read-out: Percent Control
T2 construct: purchased Eurofins DiscoverX

[3] = biological target: T3, kinome (kinase panel) (Homo sapiens, UniProt P14616); conditions: INSRR; 1000 nM; read-out: Percent Control
T3 construct: purchased Eurofins DiscoverX
T3 sequence (P14616 27-1297): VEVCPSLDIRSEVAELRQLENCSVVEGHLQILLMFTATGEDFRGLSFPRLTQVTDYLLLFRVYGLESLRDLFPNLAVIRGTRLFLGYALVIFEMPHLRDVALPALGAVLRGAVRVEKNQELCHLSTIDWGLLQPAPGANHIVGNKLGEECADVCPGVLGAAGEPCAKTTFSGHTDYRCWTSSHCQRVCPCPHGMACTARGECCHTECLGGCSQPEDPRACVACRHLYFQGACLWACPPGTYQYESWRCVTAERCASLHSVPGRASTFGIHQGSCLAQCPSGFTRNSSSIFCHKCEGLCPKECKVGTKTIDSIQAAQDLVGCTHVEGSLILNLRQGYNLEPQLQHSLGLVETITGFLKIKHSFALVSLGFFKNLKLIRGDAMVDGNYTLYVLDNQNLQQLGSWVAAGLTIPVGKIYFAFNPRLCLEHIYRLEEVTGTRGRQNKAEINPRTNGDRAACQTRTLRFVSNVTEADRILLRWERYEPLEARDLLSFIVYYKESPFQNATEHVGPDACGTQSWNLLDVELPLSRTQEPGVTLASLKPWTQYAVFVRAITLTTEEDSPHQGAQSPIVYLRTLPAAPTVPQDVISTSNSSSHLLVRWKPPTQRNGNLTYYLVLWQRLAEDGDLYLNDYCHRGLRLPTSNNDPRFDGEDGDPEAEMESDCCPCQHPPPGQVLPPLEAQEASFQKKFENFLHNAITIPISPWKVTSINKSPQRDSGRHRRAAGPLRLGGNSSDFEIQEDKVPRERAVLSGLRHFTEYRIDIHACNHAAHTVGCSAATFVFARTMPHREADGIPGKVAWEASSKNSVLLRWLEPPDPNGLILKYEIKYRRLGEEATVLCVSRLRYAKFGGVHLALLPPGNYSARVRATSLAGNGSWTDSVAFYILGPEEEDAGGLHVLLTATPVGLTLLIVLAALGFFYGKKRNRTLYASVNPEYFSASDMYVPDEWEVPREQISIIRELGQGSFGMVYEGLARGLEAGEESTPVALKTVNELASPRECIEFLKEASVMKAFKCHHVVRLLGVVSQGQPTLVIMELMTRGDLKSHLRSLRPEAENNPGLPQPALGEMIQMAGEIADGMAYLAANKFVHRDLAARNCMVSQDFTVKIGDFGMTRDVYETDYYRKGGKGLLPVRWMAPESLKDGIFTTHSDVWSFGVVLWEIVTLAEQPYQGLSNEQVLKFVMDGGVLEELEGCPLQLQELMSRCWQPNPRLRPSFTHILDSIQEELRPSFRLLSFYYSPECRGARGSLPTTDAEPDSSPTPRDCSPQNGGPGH

[4] = biological target: T4, kinome (kinase panel) (Homo sapiens, UniProt P16234); conditions: PDGFRA; 1000 nM; read-out: Percent Control
T4 construct: purchased Eurofins DiscoverX

[5] = biological target: T5, kinome (kinase panel) (Homo sapiens, UniProt P21802); conditions: FGFR2; 1000 nM; read-out: Percent Control
T5 construct: purchased Eurofins DiscoverX

[6] = biological target: T6, kinome (kinase panel) (Homo sapiens, UniProt P29320); conditions: EPHA3; 1000 nM; read-out: Percent Control
T6 construct: purchased Eurofins DiscoverX

[7] = biological target: T7, kinome (kinase panel) (Homo sapiens, UniProt P35590); conditions: TIE1; 1000 nM; read-out: Percent Control
T7 construct: purchased Eurofins DiscoverX

[8] = biological target: T8, kinome (kinase panel) (Homo sapiens, UniProt P36888, K663Q); conditions: […]; 1000 nM; read-out: Percent Control
T8 construct: purchased Eurofins DiscoverX

[9] = biological target: T9, kinome (kinase panel) (Homo sapiens, UniProt P41743); conditions: PRKCI; 1000 nM; read-out: Percent Control
T9 construct: purchased Eurofins DiscoverX

[10] = biological target: T10, kinome (kinase panel) (Homo sapiens, UniProt P42336, E545K); conditions: read-out: Percent Control
T10 construct: purchased Eurofins DiscoverX

[11] = biological target: T11, kinome (kinase panel) (Homo sapiens, UniProt P43405); conditions: SYK; 1000 nM; read-out: Percent Control
T11 construct: purchased Eurofins DiscoverX

[12] = biological target: T12, kinome (kinase panel) (Homo sapiens, UniProt P51955); conditions: NEK2; 1000 nM; read-out: Percent Control
T12 construct: purchased Eurofins DiscoverX

[13] = biological target: T13, kinome (kinase panel) (Homo sapiens, UniProt P54756); conditions: EPHA5; 1000 nM; read-out: Percent Control
T13 construct: purchased Eurofins DiscoverX

[14] = biological target: T14, kinome (kinase panel) (Homo sapiens, UniProt Q00536); conditions: PCTK1 (Entrez CDK16); 1000 nM; read-out: Percent Control
T14 construct: purchased Eurofins DiscoverX

[15] = biological target: T15, kinome (kinase panel) (Homo sapiens, UniProt Q12852); conditions: DLK (Entrez MAP3K12); 1000 nM; read-out: Percent Control
T15 construct: purchased Eurofins DiscoverX
T15 sequence (Q12852 whole entry): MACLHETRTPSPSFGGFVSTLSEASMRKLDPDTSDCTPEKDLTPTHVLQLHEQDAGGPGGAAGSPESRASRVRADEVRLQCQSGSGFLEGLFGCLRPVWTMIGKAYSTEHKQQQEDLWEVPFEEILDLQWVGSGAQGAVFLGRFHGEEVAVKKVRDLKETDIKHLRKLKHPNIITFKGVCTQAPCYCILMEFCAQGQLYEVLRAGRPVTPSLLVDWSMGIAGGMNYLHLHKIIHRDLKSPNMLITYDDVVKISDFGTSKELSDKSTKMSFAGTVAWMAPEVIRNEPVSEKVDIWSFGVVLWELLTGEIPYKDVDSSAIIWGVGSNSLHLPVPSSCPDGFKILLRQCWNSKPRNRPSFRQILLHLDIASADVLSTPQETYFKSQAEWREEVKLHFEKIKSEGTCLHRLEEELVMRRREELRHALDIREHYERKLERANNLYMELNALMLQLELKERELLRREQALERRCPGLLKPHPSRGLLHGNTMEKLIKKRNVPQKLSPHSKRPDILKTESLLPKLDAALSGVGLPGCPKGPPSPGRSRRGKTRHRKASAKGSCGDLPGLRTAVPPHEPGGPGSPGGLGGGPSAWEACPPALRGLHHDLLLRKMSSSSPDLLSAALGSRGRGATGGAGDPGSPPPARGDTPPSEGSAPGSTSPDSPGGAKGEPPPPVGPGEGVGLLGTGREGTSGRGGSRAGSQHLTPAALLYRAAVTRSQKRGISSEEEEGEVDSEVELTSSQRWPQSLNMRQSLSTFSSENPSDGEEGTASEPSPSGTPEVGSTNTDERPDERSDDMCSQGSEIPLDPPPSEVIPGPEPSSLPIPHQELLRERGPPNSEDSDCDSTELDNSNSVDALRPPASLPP

[16] = biological target: T16, kinome (kinase panel) (Homo sapiens, UniProt Q5S007); conditions: LRRK2; 1000 nM; read-out: Percent Control
T16 construct: purchased Eurofins DiscoverX

[17] = biological target: T17, kinome (kinase panel) (Homo sapiens, UniProt Q6XUX3); conditions: RIPK5 (DSTYK); 1000 nM; read-out: Percent Control
T17 construct: purchased Eurofins DiscoverX

[18] = biological target: T18, kinome (kinase panel) (Homo sapiens, UniProt Q8IW41); conditions: MAPKAPK5; 1000 nM; read-out: Percent Control
T18 construct: purchased Eurofins DiscoverX

[19] = biological target: T19, kinome (kinase panel) (Homo sapiens, UniProt Q8IY84); conditions: NIM1 (Entrez MGC42105); 1000 nM; read-out: Percent Control
T19 construct: purchased Eurofins DiscoverX

[20] = biological target: T20, kinome (kinase panel) (Homo sapiens, UniProt Q8TBX8); conditions: PIP5K2C (Entrez PIP4K2C); 1000 nM; read-out: Percent Control
T20 construct: purchased Eurofins DiscoverX

[21] = biological target: T21, kinome (kinase panel) (Homo sapiens, UniProt Q8TD19); conditions: NEK9; 1000 nM; read-out: Percent Control
T21 construct: purchased Eurofins DiscoverX

[22] = biological target: T22, kinome (kinase panel) (Homo sapiens, UniProt Q96BR1); conditions: SGK3; 1000 nM; read-out: Percent Control
T22 construct: purchased Eurofins DiscoverX

[23] = biological target: T23, kinome (kinase panel) (Homo sapiens, UniProt Q96SB4); conditions: SRPK1; 1000 nM; read-out: Percent Control
T23 construct: purchased Eurofins DiscoverX
T23 sequence (Q96SB4 whole entry): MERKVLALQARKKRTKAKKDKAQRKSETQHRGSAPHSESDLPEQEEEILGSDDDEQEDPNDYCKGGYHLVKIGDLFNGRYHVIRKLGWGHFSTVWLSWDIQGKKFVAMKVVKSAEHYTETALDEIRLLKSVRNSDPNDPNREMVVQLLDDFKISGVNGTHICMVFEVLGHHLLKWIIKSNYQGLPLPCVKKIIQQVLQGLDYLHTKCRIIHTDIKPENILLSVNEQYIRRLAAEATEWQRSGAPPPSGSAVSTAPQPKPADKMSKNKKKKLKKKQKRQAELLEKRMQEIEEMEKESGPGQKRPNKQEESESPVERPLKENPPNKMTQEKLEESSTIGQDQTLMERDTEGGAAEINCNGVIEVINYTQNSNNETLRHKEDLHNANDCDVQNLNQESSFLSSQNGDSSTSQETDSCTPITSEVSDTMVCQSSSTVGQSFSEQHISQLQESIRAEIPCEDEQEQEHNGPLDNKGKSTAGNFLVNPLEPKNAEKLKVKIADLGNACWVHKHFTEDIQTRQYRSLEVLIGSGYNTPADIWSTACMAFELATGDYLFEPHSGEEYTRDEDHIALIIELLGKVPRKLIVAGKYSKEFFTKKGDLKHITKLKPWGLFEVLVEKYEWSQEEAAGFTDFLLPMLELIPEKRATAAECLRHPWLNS

[24] = biological target: T24, kinome (kinase panel) (Homo sapiens, UniProt Q9BXA7); conditions: TSSK1B; 1000 nM; read-out: Percent Control
T24 construct: purchased Eurofins DiscoverX
T24 sequence (Q9BXA7 whole entry): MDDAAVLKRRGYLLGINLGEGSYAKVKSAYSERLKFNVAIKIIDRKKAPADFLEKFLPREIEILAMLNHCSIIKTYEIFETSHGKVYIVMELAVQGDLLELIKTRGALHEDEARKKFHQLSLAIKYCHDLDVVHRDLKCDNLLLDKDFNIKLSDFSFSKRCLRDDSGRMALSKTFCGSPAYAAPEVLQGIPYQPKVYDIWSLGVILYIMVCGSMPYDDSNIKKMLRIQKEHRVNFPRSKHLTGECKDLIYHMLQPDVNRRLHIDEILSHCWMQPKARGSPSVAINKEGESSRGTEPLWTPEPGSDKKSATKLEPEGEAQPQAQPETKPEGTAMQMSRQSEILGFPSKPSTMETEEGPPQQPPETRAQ

[25] = biological target: T25, kinome (kinase panel) (Homo sapiens, UniProt Q9H2X6); conditions: HIPK2; 1000 nM; read-out: Percent Control
T25 construct: purchased Eurofins DiscoverX

[26] = biological target: T26, kinome (kinase panel) (Homo sapiens, UniProt Q9HAZ1); conditions: CLK4; 1000 nM; read-out: Percent Control
T26 construct: purchased Eurofins DiscoverX

[27] = biological target: T27, kinome (kinase panel) (Homo sapiens, UniProt Q9UEE5); conditions: DRAK1 (Entrez STK17A); 1000 nM; read-out: Percent Control
T27 construct: purchased Eurofins DiscoverX
T27 sequence (Q9UEE5 whole entry): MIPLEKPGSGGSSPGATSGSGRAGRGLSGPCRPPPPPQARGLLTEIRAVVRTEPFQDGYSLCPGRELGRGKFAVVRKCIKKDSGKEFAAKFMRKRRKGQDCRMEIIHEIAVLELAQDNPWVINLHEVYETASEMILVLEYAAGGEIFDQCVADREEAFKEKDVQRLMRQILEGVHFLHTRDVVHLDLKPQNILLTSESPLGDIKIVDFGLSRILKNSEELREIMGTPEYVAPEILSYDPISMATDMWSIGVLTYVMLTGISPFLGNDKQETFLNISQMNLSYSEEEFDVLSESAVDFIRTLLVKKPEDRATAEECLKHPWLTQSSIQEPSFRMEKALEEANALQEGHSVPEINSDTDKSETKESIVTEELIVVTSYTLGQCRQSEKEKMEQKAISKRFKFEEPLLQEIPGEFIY

[28] = biological target: T28, kinome (kinase panel) (Homo sapiens, UniProt Q9UF33); conditions: EPHA6; 1000 nM; read-out: Percent Control
T28 construct: purchased Eurofins DiscoverX

[29] = biological target: T29, kinome (kinase panel) (Homo sapiens, UniProt Q9UPE1); conditions: SRPK3; 1000 nM; read-out: Percent Control
T29 construct: purchased Eurofins DiscoverX
T29 sequence (Q9UPE1 whole entry): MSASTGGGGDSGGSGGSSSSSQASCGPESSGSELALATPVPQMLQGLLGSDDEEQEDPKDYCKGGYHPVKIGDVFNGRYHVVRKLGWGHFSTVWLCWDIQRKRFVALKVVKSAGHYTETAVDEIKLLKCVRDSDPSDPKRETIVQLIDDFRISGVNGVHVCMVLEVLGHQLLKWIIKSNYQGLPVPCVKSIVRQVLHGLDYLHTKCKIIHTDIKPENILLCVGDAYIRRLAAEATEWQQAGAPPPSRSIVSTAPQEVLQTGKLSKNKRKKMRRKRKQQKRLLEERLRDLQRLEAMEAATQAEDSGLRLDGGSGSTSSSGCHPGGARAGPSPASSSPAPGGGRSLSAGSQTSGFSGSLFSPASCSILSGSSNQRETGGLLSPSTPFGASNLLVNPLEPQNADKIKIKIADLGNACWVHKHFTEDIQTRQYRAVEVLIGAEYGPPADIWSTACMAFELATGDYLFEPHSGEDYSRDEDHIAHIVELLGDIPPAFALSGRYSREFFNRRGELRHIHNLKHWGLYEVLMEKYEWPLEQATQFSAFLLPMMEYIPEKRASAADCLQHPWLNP

[30] = biological target: T30, kinome (kinase panel) (Homo sapiens, UniProt Q9UPZ9); conditions: ICK; 1000 nM; read-out: Percent Control
T30 construct: purchased Eurofins DiscoverX

[31] = biological target: T31, kinome (kinase panel) (Homo sapiens, UniProt Q9Y2H9); conditions: MAST1; 1000 nM; read-out: Percent Control
T31 construct: purchased Eurofins DiscoverX

[32] = biological target: T32, kinome (kinase panel) (Homo sapiens, UniProt Q9Y5S2); conditions: MRCKB (Entrez CDC42BPB); 1000 nM; read-out: Percent Control
T32 construct: purchased Eurofins DiscoverX

T1 sequence (O14936 whole entry): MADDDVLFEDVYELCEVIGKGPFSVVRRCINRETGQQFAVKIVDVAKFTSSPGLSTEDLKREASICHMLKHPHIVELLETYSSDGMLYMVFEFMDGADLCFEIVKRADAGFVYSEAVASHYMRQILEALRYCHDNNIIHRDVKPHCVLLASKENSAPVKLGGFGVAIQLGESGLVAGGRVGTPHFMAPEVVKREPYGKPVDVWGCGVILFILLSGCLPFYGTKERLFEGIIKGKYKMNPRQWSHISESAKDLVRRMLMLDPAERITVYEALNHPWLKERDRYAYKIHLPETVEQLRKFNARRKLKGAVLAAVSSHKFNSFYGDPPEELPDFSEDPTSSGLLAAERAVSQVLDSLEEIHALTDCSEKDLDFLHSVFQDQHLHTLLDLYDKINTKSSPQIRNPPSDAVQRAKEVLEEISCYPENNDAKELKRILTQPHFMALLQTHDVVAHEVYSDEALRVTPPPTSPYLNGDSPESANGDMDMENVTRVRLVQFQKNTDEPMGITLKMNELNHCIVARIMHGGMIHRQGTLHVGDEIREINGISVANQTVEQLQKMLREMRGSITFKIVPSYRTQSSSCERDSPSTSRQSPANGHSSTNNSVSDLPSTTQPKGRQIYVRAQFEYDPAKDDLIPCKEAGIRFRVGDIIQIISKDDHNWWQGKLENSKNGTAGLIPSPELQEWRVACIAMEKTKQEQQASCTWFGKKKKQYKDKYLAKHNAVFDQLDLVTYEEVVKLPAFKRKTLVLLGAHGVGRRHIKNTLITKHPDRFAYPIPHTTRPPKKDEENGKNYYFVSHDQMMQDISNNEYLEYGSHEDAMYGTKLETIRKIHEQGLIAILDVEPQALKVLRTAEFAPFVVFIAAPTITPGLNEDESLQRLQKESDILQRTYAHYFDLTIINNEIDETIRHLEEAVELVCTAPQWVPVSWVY

Structure (SMILES): CN(C)C(=O)c1cc2cnc(Nc3ccc(-c4csc5c(=O)cc(N6CCOCC6)oc45)cc3)nc2n1C1CCCC1 [SRX3177]
- remaining binding at 1 µM [1]: 35%
- remaining binding at 1 µM [2]: 96%
- remaining binding at 1 µM [3]: 100%
- remaining binding at 1 µM [4]: 60%
- remaining binding at 1 µM [5]: 86%
- remaining binding at 1 µM [6]: 90%
- remaining binding at 1 µM [7]: 77%
- remaining binding at 1 µM [8]: 93%
- remaining binding at 1 µM [9]: 89%
- remaining binding at 1 µM [10]: 45%
- remaining binding at 1 µM [11]: 81%
- remaining binding at 1 µM [12]: 90%
- remaining binding at 1 µM [13]: 100%
- remaining binding at 1 µM [14]: 21%
- remaining binding at 1 µM [15]: 73%
- remaining binding at 1 µM [16]: 34%
- remaining binding at 1 µM [17]: 87%
- remaining binding at 1 µM [18]: 72%
- remaining binding at 1 µM [19]: 69%
- remaining binding at 1 µM [20]: 1.8%
- remaining binding at 1 µM [21]: 100%
- remaining binding at 1 µM [22]: 100%
- remaining binding at 1 µM [23]: 22%
- remaining binding at 1 µM [24]: 90%
- remaining binding at 1 µM [25]: 76%
- remaining binding at 1 µM [26]: 100%
- remaining binding at 1 µM [27]: 100%
- remaining binding at 1 µM [28]: 99%
- remaining binding at 1 µM [29]: 35%
- remaining binding at 1 µM [30]: 9.8%
- remaining binding at 1 µM [31]: 53%
- remaining binding at 1 µM [32]: 96%
